Where no end group is shown, it is not given here.
Assays:
[1] = Calcein dye leakage assay; details: after 100 min, 10% Triton X-100 = 100%, triplicate
Method: The calcein dye leakage assay was conducted using the large unilamellar vesicles (LUVs) composed of 1,2-dioleoyl-sn-glycero-3-phosphocholine (DOPC) and 1,2-dioleoyl-sn-glycero-3-phosphoglycerol (DOPG) to mimic the bacterial membrane (DOPC/DOPG, 7:3, w/w) or mammalian membrane (DOPC/cholesterol, 10:1, w/w), as we described previously.[18] At various concentrations (5, 10, 20, 30, and 50 μg/mL) test peptides 8a and 8b (50 μL) mixed with liposome suspension (50 μL), and fluorescence intensity was read every 10 min for 100 min at an excitation wavelength of 490 nm and an emission wavelength of 520 nm on a SpectraMax M5 multi-mode microplate reader. Considering calcein release from liposomes treated with a 10% solution (w/v) of Triton X-100 as 100%, the apparent percentage of dye leakage was calculated using the following formula [drawing 2] where F is the intensity measured at a given peptide concentration, F0 is the background intensity of the liposome sample, and Ft is the intensity after lysis induced by Triton X-100.

[2] = system: S. pneumoniae (ATCC 49619); details: Gram-positive; CLSI microdilution, CAMHB + 2.5% lysed horse blood, 37 °C, 24 h; highest MIC of three independent experiments in triplicate
Outline: (§1)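 Inoculum 10^6 CFU/mL in CAMHB against 2-fold peptide series; salt variants used 150 mM NaCl, 4.5 mM KCl, 6 mM NH4Cl, 1 mM MgCl2, 2 mM CaCl2, or 25% FBS.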

MRSA (ATCC BAA-1556) = assay: Bactericidal kinetic assay; type: cell-based, methicillin-resistant S. aureus; details: for killing of MRSA cells at 4 × MIC: after 4 h of incubation
Method: The time course of bacterial killing was studied by the exposure of overnight grown cultures of MRSA (ATCC BAA-1556) and E. coli (ATCC BAA-2452) to 8a and 8b at the MIC and 4× the MIC in Muller Hinton media. Bacterial cells (2 × 10^6 CFU/mL) were treated with peptides and standard antibiotics and incubated at 37 °C. Aliquots were withdrawn at a 30 min time interval for 4 h and plated on the agar plate to determine the number of viable bacterial colonies. Data were obtained from two independent experiments performed in triplicate.

[3] = CD spectroscopy, helicity; type: physicochemical; design: key to Δ[θ]222 induced by TFE / Δ[θ]222 induced by Liposomes: mean residue molar ellipticity, mdeg cm2/(dmol × res); details: for [θ]222 mean residue molar ellipticity, TFE / [θ]222 mean residue molar ellipticity, Liposomes / [θ]222 mean residue molar ellipticity, PBS: CD at 222 nm, 25 °C; for [θ]222 mean residue molar ellipticity, TFE: aqueous buffer containing 50% TFE; for [θ]222 mean residue molar ellipticity, Liposomes / Δ[θ]222 induced by Liposomes: bacterial membrane mimicking liposomes; for [θ]222 mean residue molar ellipticity, Liposomes: peptide:lipid molar ratio 1:1.05; for [θ]222 mean residue molar ellipticity, PBS: phosphate buffer saline pH 7.0; for Δ[θ]222 induced by TFE / Δ[θ]222 induced by Liposomes: difference to PBS; for Δ[θ]222 induced by TFE: 50% TFE; for % of helicity induced by TFE: increase in molar ellipticity at 222 nm in the presence of 50% TFE; for % of helicity induced by Liposomes: increase in molar ellipticity at 222 nm in the presence of liposomes;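 as to % of helicity induced by Liposomes: share of the total helicity with liposomes gained over the same peptide in PBS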;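 as to % of helicity induced by TFE: share of the total helicity in TFE gained over the same peptide in PBS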
Outline: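 Ellipticity at 222 nm, converted to mean residue molar ellipticity, was measured at 25 °C (three-scan average, 190–260 nm, 1 mm path) in phosphate buffer pH 7.2, 50% TFE, or liposomes at 75 μM lipid, after blank subtraction. Induced helicity is the percent rise at 222 nm versus buffer.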

[4] = system: P. aeruginosa (ATCC 27883); assay: MIC, standard microtiter dilution (CLSI); type: cell-based, Pseudomonas aeruginosa; details: broth microdilution (CLSI), CAMHB, 37 °C, 24 h
Outline: as §1

[5] = system: nonresistant and MDR S. pneumoniae; details: Table 2
Outline: as §1

[6] = bacterial membrane mimicking LUVs
[7] = mammalian membrane mimicking LUVs
[8] = 10^6 CFU/mL, highest MIC of three independent experiments in triplicate

Compound | calcein dye leakage, 50 μg/mL [1, 6] | calcein dye leakage, 50 μg/mL [1, 7] | MIC, S. pneumoniae (ATCC 49619) [2] | time to complete killing of MRSA at 4 × MIC (MRSA (ATCC BAA-1556); 4 × MIC) | [θ]222 mean residue molar ellipticity, TFE [3] | [θ]222 mean residue molar ellipticity, Liposomes [3] | [θ]222 mean residue molar ellipticity, PBS [3] | Δ[θ]222 induced by TFE [3] | Δ[θ]222 induced by Liposomes [3] | % of helicity induced by TFE [3] | % of helicity induced by Liposomes [3] | MIC, P. aeruginosa (ATCC 27883) [4, 8] | MIC, P. aeruginosa (ATCC 27883) ([4]; value in parentheses (μM)) | calcein dye leakage, 5 μg/mL [1, 6] | MIC, nonresistant and MDR S. pneumoniae [5] | killing of MRSA cells at 4 × MIC (MRSA (ATCC BAA-1556))
CCCCCCCCCC(=O)N[C@@H](Cc1c[nH]c2ccccc12)C(=O)N[C@H](CC(N)=O)C(=O)N[C@@H](CC(=O)O)C(=O)N[C@@H]1C(=O)NCC(=O)N[C@@H](CCCN)C(=O)N[C@@H](CC(=O)O)C(=O)N[C@H](C)C(=O)N[C@@H](CC(=O)O)C(=O)NCC(=O)N[C@H](CO)C(=O)N[C@@H]([C@H](C)CC(=O)O)C(=O)N[C@@H](CC(=O)c2ccccc2N)C(=O)O[C@@H]1C [daptomycin, reference compound] | 42% | around 7% | 12.5 µg/mL | 3 h |  |  |  |  |  |  |  |  |  |  |  | 
KWIKKWIKWWKK-NH2 [7b] |  |  |  |  | -10800 mdeg cm2/(dmol × res) | -12345 mdeg cm2/(dmol × res) | -3016 mdeg cm2/(dmol × res) | -7784 | -9328 | 72.06% | 75.56% | 6.2 µg/mL | 3.53 µM |  |  | 
KWLKKWLKWWKK-NH2 [8b] |  | 10% | 12.5 µg/mL |  | -15887 mdeg cm2/(dmol × res) | -19313 mdeg cm2/(dmol × res) | -6387 mdeg cm2/(dmol × res) | -9499 | -12926 | 59.79% | 66.92% | 6.2 µg/mL | 3.53 µM | approximately 30% | 12.5 µg/mL | completely eliminated
RWIRRWIRWWRR-NH2 [7a] |  |  |  |  | -8205 mdeg cm2/(dmol × res) | -11307 mdeg cm2/(dmol × res) | -2471 mdeg cm2/(dmol × res) | -5734 | -8836 | 69.88% | 78.14% | 6.2 µg/mL | 3.22 µM |  |  | 
RWLRRWLRWWRR-NH2 [8a] |  | 19% |  |  | -10811 mdeg cm2/(dmol × res) | -15616 mdeg cm2/(dmol × res) | -4794 mdeg cm2/(dmol × res) | -6017 | -10822 | 55.65% | 69.30% | 12.5 µg/mL | 6.49 µM | approximately 30% |  | completely eliminated
